Measurements: ChEMBL document CHEMBL4219211, “Design and discovery of thioether and nicotinamide containing sorafenib analogues as multikinase inhibitors targeting B-Raf, B-RafV600E and VEGFR-2” (Bioorg Med Chem, 2018)
Calls of active or inactive are those of the source. The calls are words filed in the database; no cut-off is given here.

Columns and labels:
[1] = biological target: Serine/threonine-protein kinase B-raf (Homo sapiens, UniProt P15056); assay: Inhibition of B-Raf (unknown origin) using MEK1 as substrate measured after 2 hrs by ELISA
[2] = biological target: Serine/threonine-protein kinase B-raf (Homo sapiens, UniProt P15056, V600E); assay: Inhibition of B-Raf V600E mutant (unknown origin) using MEK1 as substrate measured after 2 hrs by ELISA
[3] = biological target: Vascular endothelial growth factor receptor 2 (Homo sapiens, UniProt P35968); assay: Inhibition of VEGFR2 (unknown origin) using FAM-labelled peptide as substrate pretreated for 10 mins followed by substrate addition measured after 30 mins by caliper mobility shift assay
[4] = biological target: T1, Receptor-type tyrosine-protein kinase FLT3 (Homo sapiens, UniProt P36888); assay: Inhibition of FLT3 (unknown origin)
T1 sequence (P36888 whole entry): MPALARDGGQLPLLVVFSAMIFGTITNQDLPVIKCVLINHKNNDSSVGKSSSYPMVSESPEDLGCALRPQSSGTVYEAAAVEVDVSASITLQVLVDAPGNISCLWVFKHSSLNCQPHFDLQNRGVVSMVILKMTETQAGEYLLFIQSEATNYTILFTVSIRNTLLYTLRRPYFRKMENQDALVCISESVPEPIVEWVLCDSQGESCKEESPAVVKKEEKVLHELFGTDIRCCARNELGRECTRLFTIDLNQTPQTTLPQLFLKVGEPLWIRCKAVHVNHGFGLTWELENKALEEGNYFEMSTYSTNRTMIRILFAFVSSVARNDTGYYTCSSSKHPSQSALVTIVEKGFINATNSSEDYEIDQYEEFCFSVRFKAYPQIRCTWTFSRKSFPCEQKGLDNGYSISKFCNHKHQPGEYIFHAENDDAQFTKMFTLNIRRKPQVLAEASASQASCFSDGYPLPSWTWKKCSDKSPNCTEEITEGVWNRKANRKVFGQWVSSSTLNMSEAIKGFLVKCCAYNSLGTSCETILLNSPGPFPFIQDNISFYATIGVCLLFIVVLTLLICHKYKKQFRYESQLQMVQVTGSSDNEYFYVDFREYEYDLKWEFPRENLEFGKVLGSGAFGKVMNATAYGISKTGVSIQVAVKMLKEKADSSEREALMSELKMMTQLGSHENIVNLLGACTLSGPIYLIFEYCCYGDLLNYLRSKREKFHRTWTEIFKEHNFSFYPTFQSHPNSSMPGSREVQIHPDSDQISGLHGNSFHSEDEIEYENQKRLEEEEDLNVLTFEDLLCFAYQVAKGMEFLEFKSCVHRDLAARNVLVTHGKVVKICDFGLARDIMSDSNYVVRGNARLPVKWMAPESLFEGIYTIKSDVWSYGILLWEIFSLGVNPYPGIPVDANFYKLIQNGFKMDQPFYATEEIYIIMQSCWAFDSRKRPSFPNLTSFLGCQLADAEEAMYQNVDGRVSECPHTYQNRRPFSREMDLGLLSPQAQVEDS

[5] = biological target: Mast/stem cell growth factor receptor Kit (Homo sapiens, UniProt P10721); assay: Inhibition of c-KIT (unknown origin)
[6] = biological target: Epidermal growth factor receptor (Homo sapiens, UniProt P00533); assay: Inhibition of EGFR (unknown origin)
HUVEC [7] = assay: Antiangiogenic activity against HUVEC assessed as reduction in tube formation at 0.05 uM after 6 hrs by matrigel based phase contrast microscopic analysis; format: functional, Homo sapiens; set-up: scale not given: the % may be the effect or the level left
HCT-116 = assay: cells; conditions: Homo sapiens, HCT-116, 48 h
Description: Cytotoxicity against human HCT116 cells after 48 hrs by MTT assay

B16-BL6 = assay: cells; conditions: Mus musculus, B16-BL6, 48 h
Description: Cytotoxicity against mouse B16-BL6 cells after 48 hrs by MTT assay

HUVEC [8] = assay: Antiangiogenic activity against HUVEC assessed as reduction in tube formation at 0.1 uM after 6 hrs by matrigel based phase contrast microscopic analysis; format: functional, Homo sapiens; set-up: scale not given: the % may be the effect or the level left

Chain of Epidermal growth factor receptor (P00533 whole entry): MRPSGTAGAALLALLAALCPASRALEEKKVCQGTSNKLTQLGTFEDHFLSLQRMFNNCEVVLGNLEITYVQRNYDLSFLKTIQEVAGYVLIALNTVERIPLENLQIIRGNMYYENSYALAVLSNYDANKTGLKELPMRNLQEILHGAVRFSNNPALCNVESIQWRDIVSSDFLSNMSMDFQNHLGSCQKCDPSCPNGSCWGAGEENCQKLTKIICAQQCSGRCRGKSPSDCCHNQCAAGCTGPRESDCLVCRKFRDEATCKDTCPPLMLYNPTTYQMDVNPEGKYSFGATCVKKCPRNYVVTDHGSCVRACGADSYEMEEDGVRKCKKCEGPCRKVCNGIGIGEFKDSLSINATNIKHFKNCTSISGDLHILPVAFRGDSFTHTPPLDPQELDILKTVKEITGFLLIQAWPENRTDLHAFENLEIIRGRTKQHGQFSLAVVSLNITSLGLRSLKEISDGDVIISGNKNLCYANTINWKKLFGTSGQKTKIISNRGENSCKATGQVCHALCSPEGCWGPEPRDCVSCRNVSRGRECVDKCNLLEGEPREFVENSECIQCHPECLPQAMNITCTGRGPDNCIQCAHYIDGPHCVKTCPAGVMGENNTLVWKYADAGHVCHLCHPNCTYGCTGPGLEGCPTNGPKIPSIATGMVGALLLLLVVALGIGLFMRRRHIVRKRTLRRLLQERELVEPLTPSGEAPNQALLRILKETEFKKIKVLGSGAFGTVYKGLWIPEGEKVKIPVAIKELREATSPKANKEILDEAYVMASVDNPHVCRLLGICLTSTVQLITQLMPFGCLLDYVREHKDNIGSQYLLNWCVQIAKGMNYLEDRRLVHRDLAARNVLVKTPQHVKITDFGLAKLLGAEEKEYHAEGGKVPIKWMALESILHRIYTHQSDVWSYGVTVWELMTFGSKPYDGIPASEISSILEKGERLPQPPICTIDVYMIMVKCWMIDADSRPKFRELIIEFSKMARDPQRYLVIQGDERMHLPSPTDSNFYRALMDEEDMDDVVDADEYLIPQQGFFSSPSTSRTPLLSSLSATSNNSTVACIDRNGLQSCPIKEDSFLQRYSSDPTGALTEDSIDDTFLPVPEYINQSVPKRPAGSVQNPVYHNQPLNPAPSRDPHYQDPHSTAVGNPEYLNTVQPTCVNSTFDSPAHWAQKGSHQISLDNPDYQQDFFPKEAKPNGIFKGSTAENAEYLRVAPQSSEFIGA
Chain of Vascular endothelial growth factor receptor 2 (P35968 whole entry): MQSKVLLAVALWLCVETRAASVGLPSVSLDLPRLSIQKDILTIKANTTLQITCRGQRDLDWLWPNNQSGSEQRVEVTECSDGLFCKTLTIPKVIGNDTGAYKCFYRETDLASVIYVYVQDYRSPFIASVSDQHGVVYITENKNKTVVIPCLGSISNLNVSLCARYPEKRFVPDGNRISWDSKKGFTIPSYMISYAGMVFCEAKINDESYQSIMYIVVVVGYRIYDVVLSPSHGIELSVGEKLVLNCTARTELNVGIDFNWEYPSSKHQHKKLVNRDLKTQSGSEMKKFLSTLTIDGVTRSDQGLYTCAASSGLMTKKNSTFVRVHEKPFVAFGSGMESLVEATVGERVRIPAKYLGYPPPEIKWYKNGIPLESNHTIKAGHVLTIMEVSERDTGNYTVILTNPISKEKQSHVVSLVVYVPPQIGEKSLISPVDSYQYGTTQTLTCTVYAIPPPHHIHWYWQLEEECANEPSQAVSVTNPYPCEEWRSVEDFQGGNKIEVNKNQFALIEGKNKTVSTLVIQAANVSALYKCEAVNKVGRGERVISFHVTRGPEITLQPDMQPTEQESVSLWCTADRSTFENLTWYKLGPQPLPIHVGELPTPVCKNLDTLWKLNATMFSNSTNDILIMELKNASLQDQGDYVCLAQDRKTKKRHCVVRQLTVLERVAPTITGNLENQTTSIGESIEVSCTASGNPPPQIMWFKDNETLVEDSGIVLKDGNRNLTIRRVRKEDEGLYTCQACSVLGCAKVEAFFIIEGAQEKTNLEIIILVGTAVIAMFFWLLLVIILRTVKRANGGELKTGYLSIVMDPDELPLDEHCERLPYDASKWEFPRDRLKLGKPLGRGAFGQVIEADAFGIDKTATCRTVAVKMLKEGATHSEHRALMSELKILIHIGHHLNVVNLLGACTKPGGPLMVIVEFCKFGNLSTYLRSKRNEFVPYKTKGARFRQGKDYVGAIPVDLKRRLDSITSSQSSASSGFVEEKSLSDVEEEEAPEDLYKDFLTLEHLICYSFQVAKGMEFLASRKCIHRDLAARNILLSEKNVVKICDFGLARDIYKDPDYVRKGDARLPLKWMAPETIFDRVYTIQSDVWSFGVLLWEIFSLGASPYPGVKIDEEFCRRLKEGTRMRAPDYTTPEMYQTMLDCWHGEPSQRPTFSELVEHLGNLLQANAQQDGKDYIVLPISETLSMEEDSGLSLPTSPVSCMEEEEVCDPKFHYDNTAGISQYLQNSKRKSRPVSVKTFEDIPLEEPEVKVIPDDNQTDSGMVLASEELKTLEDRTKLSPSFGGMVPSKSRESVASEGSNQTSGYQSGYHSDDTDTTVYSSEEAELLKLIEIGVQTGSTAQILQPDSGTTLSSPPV
Chain of Mast/stem cell growth factor receptor Kit (P10721 whole entry): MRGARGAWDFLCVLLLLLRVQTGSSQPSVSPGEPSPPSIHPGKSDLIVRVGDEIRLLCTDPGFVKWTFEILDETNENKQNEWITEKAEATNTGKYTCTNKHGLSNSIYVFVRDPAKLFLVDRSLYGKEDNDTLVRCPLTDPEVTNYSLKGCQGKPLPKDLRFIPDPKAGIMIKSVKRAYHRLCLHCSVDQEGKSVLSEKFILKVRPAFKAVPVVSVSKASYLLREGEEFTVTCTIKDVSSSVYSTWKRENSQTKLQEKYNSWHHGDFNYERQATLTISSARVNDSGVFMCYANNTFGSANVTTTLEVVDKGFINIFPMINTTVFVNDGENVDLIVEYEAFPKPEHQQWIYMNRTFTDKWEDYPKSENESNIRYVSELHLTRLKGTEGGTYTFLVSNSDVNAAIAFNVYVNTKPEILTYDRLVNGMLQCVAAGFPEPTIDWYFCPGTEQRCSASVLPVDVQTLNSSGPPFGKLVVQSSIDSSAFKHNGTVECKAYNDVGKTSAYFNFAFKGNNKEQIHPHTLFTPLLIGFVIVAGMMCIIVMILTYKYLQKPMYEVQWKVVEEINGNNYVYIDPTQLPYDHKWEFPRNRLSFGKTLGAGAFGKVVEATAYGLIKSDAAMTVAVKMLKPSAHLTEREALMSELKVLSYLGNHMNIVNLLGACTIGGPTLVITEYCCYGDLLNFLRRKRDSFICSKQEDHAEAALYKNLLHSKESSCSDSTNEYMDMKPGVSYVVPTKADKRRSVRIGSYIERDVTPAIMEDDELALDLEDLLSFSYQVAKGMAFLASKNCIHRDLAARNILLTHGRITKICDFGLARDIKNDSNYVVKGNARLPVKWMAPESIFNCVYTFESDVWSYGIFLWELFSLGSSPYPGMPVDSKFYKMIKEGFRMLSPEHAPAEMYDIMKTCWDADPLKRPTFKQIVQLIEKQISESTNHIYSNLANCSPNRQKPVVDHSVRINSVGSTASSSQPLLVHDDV
Chain of Serine/threonine-protein kinase B-raf (Homo sapiens, UniProt P15056) (P15056 whole entry): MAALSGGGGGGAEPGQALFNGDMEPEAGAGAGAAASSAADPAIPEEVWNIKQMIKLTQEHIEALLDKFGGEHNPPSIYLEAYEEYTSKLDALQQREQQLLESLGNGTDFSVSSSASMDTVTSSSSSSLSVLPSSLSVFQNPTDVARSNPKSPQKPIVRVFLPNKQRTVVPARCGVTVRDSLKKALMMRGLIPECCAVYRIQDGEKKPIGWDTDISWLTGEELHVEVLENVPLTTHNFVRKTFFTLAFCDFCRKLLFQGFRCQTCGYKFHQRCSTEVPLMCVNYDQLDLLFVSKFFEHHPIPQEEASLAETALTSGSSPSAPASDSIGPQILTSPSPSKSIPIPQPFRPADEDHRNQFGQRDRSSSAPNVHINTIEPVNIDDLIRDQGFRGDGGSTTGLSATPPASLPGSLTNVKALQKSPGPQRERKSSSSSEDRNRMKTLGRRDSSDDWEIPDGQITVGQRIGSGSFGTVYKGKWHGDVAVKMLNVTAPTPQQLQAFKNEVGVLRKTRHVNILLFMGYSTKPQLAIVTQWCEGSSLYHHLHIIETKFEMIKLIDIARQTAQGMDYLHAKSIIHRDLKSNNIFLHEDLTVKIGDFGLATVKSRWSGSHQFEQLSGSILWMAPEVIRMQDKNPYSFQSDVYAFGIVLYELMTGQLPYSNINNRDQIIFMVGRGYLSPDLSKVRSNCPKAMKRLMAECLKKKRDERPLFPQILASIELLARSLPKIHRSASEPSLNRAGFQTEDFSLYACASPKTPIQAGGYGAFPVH
Chain of Serine/threonine-protein kinase B-raf (Homo sapiens, UniProt P15056, V600E) (P15056 2-766 V600E limits assumed): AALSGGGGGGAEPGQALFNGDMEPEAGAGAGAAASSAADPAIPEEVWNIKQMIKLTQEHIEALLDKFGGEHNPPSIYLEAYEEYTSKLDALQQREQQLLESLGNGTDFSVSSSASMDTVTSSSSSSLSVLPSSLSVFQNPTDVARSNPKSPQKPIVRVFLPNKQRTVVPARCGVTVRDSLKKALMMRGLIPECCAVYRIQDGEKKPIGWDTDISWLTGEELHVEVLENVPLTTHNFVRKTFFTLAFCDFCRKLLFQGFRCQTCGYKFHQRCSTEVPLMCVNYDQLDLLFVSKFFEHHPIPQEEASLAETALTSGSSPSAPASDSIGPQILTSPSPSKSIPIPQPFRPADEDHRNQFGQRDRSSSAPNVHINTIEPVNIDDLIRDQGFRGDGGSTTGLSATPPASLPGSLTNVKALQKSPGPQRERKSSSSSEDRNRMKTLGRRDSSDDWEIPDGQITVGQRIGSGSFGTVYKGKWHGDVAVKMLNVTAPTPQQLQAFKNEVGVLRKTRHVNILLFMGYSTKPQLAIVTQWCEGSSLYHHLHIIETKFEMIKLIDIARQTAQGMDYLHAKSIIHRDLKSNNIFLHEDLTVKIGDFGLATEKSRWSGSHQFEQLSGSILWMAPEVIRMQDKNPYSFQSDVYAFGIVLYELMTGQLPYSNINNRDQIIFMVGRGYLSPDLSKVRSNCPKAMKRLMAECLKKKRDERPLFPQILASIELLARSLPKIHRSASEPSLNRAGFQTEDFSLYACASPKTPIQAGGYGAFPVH

| SMILES | IC50 [1] [µM] | IC50 [2] [µM] | IC50 [3] [µM] | IC50 [4] [µM] | IC50 [5] [µM] | IC50 [6] [µM] | IC50 (HCT-116) [µM] | IC50 (B16-BL6) [µM] | Activity (HUVEC [7]) [%] | Activity (HUVEC [7]; Homo sapiens) | Activity (HUVEC [8]) [%] |
| --- | --- | --- | --- | --- | --- | --- | --- | --- | --- | --- | --- |
| CNC(=O)c1ccc(Sc2cccc(NC(=S)Nc3ccc(Br)c(C(F)(F)F)c3)c2)nc1 | – | – | 0.133 | – | – | – | 16.5 | > 100 | – | – | – |
| CNC(=O)c1ccc(Sc2ccc(NC(=O)Nc3cc(C(F)(F)F)cc(C(F)(F)F)c3)cc2)nc1 | 0.093 | 0.196 | 0.508 | – | – | – | 7.09 | 45.2 | – | – | – |
| CNC(=O)c1ccc(Sc2cccc(NC(=S)Nc3ccc(F)c(Cl)c3)c2)nc1 | 0.28 | 0.392 | 4.02 | – | – | – | 17.3 | > 100 | – | – | – |
| CNC(=O)c1ccc(Sc2ccc(NC(=S)Nc3ccc(Cl)cc3)cc2)nc1 | 2.06 | 1.78 | 8.66 | – | – | – | 34.5 | 69.3 | – | – | – |
| CNC(=O)c1ccc(Sc2cccc(NC(=S)Nc3ccc(OC(F)(F)F)cc3)c2)nc1 | 5.85 | 7.48 | > 10 | – | – | – | 24.5 | 91 | – | – | – |
| CNC(=O)c1ccc(Sc2cccc(NC(=S)Nc3ccc(Cl)cc3)c2)nc1 | 0.791 | 0.857 | 5.99 | – | – | – | 39.5 | 67.5 | – | – | – |
| CNC(=O)c1ccc(Sc2cccc(NC(=S)Nc3ccc(F)c(F)c3)c2)nc1 | 0.442 | 0.539 | 3.86 | – | – | – | 35.1 | 58.2 | – | – | – |
| CNC(=O)c1ccc(Sc2ccc(NC(=S)Nc3cc(C(F)(F)F)cc(C(F)(F)F)c3)cc2)nc1 | – | – | 0.277 | – | – | – | 16.6 | 36.1 | – | – | – |
| CNC(=O)c1cc(Oc2ccc(NC(=O)Nc3ccc(Cl)c(C(F)(F)F)c3)cc2)ccn1 [SORAFENIB] | – | – | – | – | – | – | – | 36.5 | – | Active | 100 |
| CNC(=O)c1ccc(Sc2cccc(NC(=S)Nc3cc(C(F)(F)F)cc(C(F)(F)F)c3)c2)nc1 | 0.158 | 0.169 | 0.887 | – | – | – | 5.02 | 54.2 | – | – | – |
| CNC(=O)c1ccc(Sc2cccc(NC(=S)Nc3cccc(C(F)(F)F)c3)c2)nc1 | 0.973 | 1.27 | 6.91 | – | – | – | 16.1 | 19.2 | – | – | – |

Second part, led by results:

| IC50 [1] [µM] | IC50 [2] [µM] | IC50 [3] [µM] | IC50 [4] [µM] | IC50 [5] [µM] | IC50 [6] [µM] | IC50 (HCT-116) [µM] | IC50 (B16-BL6) [µM] | SMILES | Activity (HUVEC [7]) [%] | Activity (HUVEC [7]; Homo sapiens) | Activity (HUVEC [8]) [%] |
| --- | --- | --- | --- | --- | --- | --- | --- | --- | --- | --- | --- |
| 0.027 | 0.028 | 0.046 | 0.949 | 0.701 | > 1 | 4.9 | 23.5 | CNC(=O)c1ccc(Sc2ccc(NC(=S)Nc3ccc(Cl)c(C(F)(F)F)c3)cc2)nc1 | 100 | – | – |
| 0.021 | 0.029 | 0.084 | 0.067 | 0.535 | > 1 | 5.29 | 24.6 | CNC(=O)c1ccc(Sc2ccc(NC(=O)Nc3ccc(Cl)c(C(F)(F)F)c3)cc2)nc1 | 100 | – | – |
| 0.503 | 0.571 | > 10 | – | – | – | 25.9 | 53.1 | CNC(=O)c1ccc(Sc2ccc(NC(=S)Nc3cccc(C(F)(F)F)c3)cc2)nc1 | – | – | – |
| 0.069 | 0.077 | 0.061 | – | – | – | 18.2 | 42.4 | CNC(=O)c1ccc(Sc2cccc(NC(=S)Nc3ccc(F)c(C(F)(F)F)c3)c2)nc1 | – | – | – |
| 0.017 | 0.016 | 0.063 | 0.781 | > 1 | 0.596 | 5.18 | 19.8 | CNC(=O)c1ccc(Sc2cccc(NC(=S)Nc3ccc(Cl)c(C(F)(F)F)c3)c2)nc1 | 100 | – | – |
| 0.81 | 0.892 | > 10 | – | – | – | 22.2 | 52.6 | CNC(=O)c1ccc(Sc2ccc(NC(=S)Nc3ccc(F)c(F)c3)cc2)nc1 | – | – | – |
| 9.87 | > 10 | > 10 | – | – | – | > 100 | > 100 | CNC(=O)c1ccc(Sc2ccc(NC(=S)Nc3ccc(OC(F)(F)F)cc3)cc2)nc1 | – | – | – |
| 0.033 | 0.045 | 0.074 | – | – | – | 6.37 | 29.3 | CNC(=O)c1ccc(Sc2ccc(NC(=S)Nc3ccc(F)c(C(F)(F)F)c3)cc2)nc1 | – | – | – |
| 0.048 | 0.065 | 0.102 | – | – | – | 5.8 | 39.6 | CNC(=O)c1ccc(Sc2ccc(NC(=O)Nc3ccc(F)c(C(F)(F)F)c3)cc2)nc1 | – | – | – |
